Measurements: patent US20240254138A1, “TRICYCLIC PYRIMIDINES AS CYCLIN-DEPENDENT KINASE 7 (CDK7) INHIBITORS” (JANSSEN PHARMACEUTICA NV, priority 2021, published 2024)
Read-outs that look alike come from different tables or passages of the source.

Assays:
[1] = system: RNA Polymerase II Serine 5 phosphorylation (Rpb1 CTD, downstream substrate of CDK7) in A549 cells; test: Imaging-based cellular RNA PolII Ser5 phosphorylation assay in A549 cells; format: cell-based, human; settings: wild-type CDK7, RNA PolII Ser5 phosphorylation, averaged over all measurements; for CDK7_A549 Wild-type CDK7 (pIC50): A549 cells; for IC50: Homo sapiens, A549, A549 cells, read-out: CDK7_A549 Wild-type CDK7 (pIC50) (converted)
In short: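 A549 cells, seeded 1000/well in DMEM with 1% FBS and cultured 20 h, were treated with compound for 3 h at 37 °C. Ser5-phospho-Rpb1 CTD detected by immunofluorescence imaging after fixation and methanol permeabilization; IC50 from curve fit normalized to DMSO and 10 μM reference-compound controls.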

[2] = system: RNA Polymerase II Serine 5 phosphorylation in A549 cells overexpressing CDK7-mutant (C312S); test: Imaging-based cellular RNA PolII Ser5 phosphorylation assay in A549 cells overexpressing CDK7-mutant (C312S); format: cell-based, human; settings: RNA PolII Ser5 phosphorylation, averaged over all measurements; for CDK7_A549 mutant hCDK7(pIC50): A549 cells overexpressing CDK7-mutant (C312S); for IC50: Homo sapiens, A549, A549 cells overexpressing CDK7-mutant (C312S), read-out: CDK7_A549 mutant hCDK7(pIC50) (converted)
In short: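 A549 cells overexpressing CDK7 C312S (with endogenous wild-type CDK7) were treated with compound for 3 h at 37 °C in 1% FBS medium. Phospho-Rpb1 CTD Ser5 was immunostained after fixation and imaged. IC50 came from curve fit of % control, normalised to DMSO and 10 μM reference-compound controls.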

[3] = biological target: CDK7/cyclinH/MAT1 trimeric complex (Homo sapiens, UniProt P50613); test: In vitro CDK7 assay, potency of irreversible covalent inhibitors (kinact/KI), coupled PK/LDH ADP readout at 340 nm
Chain of CDK7/cyclinH/MAT1 trimeric complex (P50613 whole entry): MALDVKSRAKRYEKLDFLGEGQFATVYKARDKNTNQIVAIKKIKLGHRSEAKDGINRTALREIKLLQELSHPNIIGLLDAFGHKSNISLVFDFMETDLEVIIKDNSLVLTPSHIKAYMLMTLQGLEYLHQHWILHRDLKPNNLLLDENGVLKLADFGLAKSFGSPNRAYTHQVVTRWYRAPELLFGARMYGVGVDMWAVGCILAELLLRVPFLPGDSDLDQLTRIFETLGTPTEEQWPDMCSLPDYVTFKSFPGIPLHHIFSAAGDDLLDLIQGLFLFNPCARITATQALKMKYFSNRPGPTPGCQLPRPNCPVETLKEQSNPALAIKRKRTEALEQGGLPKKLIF
Chain of CDK7/cyclinH/MAT1 trimeric complex (P51946 whole entry partner): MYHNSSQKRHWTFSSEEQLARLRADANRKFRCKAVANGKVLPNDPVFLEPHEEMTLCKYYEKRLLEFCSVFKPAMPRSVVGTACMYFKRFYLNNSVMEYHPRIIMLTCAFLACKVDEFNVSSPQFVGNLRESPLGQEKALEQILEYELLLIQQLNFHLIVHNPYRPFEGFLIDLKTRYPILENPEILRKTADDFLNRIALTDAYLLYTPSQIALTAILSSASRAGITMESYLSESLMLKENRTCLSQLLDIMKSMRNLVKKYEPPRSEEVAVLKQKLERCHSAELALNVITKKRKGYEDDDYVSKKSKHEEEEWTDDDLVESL
Chain of CDK7/cyclinH/MAT1 trimeric complex (P51948 whole entry partner): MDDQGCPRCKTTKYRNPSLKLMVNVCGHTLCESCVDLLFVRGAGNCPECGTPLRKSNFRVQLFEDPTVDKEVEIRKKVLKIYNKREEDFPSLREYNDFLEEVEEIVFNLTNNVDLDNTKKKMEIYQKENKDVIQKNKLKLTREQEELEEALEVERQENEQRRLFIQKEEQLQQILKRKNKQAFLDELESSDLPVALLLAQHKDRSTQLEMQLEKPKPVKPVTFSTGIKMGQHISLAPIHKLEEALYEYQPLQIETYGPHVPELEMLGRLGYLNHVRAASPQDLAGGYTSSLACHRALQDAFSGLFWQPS

[4] = CDK7 (20 nM enz.) (KI, μM), 20 nM enzyme
[5] = read-out: CDK7 (20 nM enz.) (kinact, s^−1), 20 nM enzyme
[6] = read-out: CDK7 (20 nM enz.) (kinact/KI, M^−1*s^−1), 20 nM enzyme
[7] = read-out: CDK7 (20 nM enz.) (kobs/[I], M^−1*s^−1), 20 nM enzyme
[8] = CDK7 (KI(μM)), […], 1 mM ATP, room temperature, averaged values over all measurements
[9] = read-out: CDK7 (kinact, s^−1), kinact = maximal rate of inactivation, 1 mM ATP, room temperature, averaged values over all measurements
[10] = read-out: CDK7 (kinact/KI, M^−1*s^−1), potency of irreversible covalent inhibitors, 1 mM ATP, room temperature, averaged values over all measurements

| Compound | Ki [3, 4] [µM] | kinact [3, 5] [s⁻¹] | IC50 [1] [nM] | IC50 [2] [nM] | kinact/KI [3, 6] [M⁻¹ s⁻¹] | further results |
| --- | --- | --- | --- | --- | --- | --- |
| C=CC(=O)N1CCC(N2CC(c3cc4c(c(C)n3)OCc3c(-c5cnn(C)c5)ccnc3N4)C2)CC1 [Compound 316] | 0.0898 | – | – | – | – | CDK7_A549 Wild-type CDK7 (pIC50) [1]: 6.97; CDK7_A549 mutant hCDK7(pIC50) [2]: 5.32; CDK7 (20 nM enz.) (kinact, s^−1) ([3]; 20 nM enzyme): 2.255e-05 s⁻¹; CDK7 (20 nM enz.) (kinact/KI, M^−1*s^−1) ([3]; 20 nM enzyme): 251.248 M⁻¹ s⁻¹ |
| C=CC(=O)N1CC[C@H](N2CC(c3cc4c(c(C5CC5)n3)OCc3c(N5CCOCC5)ccnc3N4)C2)C1 (single isomer, unassigned) [Compound 421] | 0.064 | 7.59e-05 | – | – | – | CDK7_A549 Wild-type CDK7 (pIC50) [1]: 7.02; CDK7_A549 mutant hCDK7(pIC50) [2]: 5; CDK7 (20 nM enz.) (kinact/KI, M^−1*s^−1) ([3]; 20 nM enzyme): 1185.66 M⁻¹ s⁻¹ |
| CC#CC(=O)N1CCC(N2CC(c3cc4c(c(C5CC5)n3)OCc3c(N5CCOCC5)ccnc3N4)C2)CC1 [Compound 340] | 0.0486 | – | – | – | – | CDK7_A549 Wild-type CDK7 (pIC50) [1]: 7.37; CDK7_A549 mutant hCDK7(pIC50) [2]: 5.43; CDK7 (20 nM enz.) (kinact, s^−1) ([3]; 20 nM enzyme): 2.465e-05 s⁻¹; CDK7 (20 nM enz.) (kinact/KI, M^−1*s^−1) ([3]; 20 nM enzyme): 507.473 M⁻¹ s⁻¹ |
| C=CC(=O)N1CC(N2CC(c3cc4c(c(C)n3)O[C@H](C)c3c(N5CCOCC5)ccnc3N4)C2)C1 (single isomer, unassigned) [Compound 343] | 0.0503 | – | – | – | – | CDK7_A549 Wild-type CDK7 (pIC50) [1]: 7.15; CDK7_A549 mutant hCDK7(pIC50) [2]: <5; CDK7 (20 nM enz.) (kinact, s^−1) ([3]; 20 nM enzyme): 5.902e-05 s⁻¹; CDK7 (20 nM enz.) (kinact/KI, M^−1*s^−1) ([3]; 20 nM enzyme): 1172.91 M⁻¹ s⁻¹ |
| C=CC(=O)N1CC(N2CC(c3ccc4c(c3)Nc3nccc(C5CCOCC5)c3CO4)C2)C1 [Compound 167] | 0.0325 | 5.4e-05 | 105 | > 10000 | 1660 | – |
| C=CC(=O)N1CC[C@@H](N2CC(c3cc(C)c4c(c3)Nc3nccc(-c5cnn(C)c5)c3CO4)C2)C1 (single isomer, unassigned) [Compound 194] | 0.0892 | 4.72e-05 | 58.9 | > 10000 | 530 | – |
| C=CC(=O)N1CC(N2CC[C@@H](c3cc(C)c4c(c3)Nc3nccc(C5CCOCC5)c3CO4)N(C)CC2)C1 (single isomer, unassigned) [Compound 256] | 0.0827 | 6.71e-05 | 53.7 | 8320 | 811 | – |
| C=CC(=O)N1CC(N2CCC(c3ccc4c(c3)Nc3nccc(N5CCOCC5)c3CO4)CC2)C1 [Compound 121] | 0.0963 | – | – | – | – | CDK7_A549 Wild-type CDK7 (pIC50) [1]: 6.9; CDK7_A549 mutant hCDK7(pIC50) [2]: <5; CDK7 (20 nM enz.) (kinact, s^−1) ([3]; 20 nM enzyme): 9.753e-05 s⁻¹; CDK7 (20 nM enz.) (kinact/KI, M^−1*s^−1) ([3]; 20 nM enzyme): 1012.54 M⁻¹ s⁻¹ |
| C=CC(=O)N1CC[C@H](N2CC(c3cc(C)c4c(c3)Nc3nccc(N5CCOCC5)c3CO4)C2)C1 (single isomer, unassigned) [Compound 329] | 0.0243 | 3.81e-05 | 79.4 | > 10000 | 1570 | – |
| C=CC(=O)N1CC(N2CCC(c3cc(C)c4c(c3)Nc3nccc(-c5cnn(C)c5)c3CO4)CC2)C1 [Compound 99] | – | – | 44.7 | > 10000 | – | kinact/KI [3, 7]: 1440 M⁻¹ s⁻¹ |
| CC#CC(=O)N1CC(N2CC[C@@H](c3cc4c(c(C)n3)O[C@@H](C)c3c(N5CCOCC5)ccnc3N4)N(C)CC2)C1 (single isomer, unassigned) [Compound 521] | 1.71 | 2.72e-05 | 5250 | > 10000 | 15.9 | – |
| C=CC(=O)N1CC(N2CCC(c3ccc4c(c3)Nc3ncc(C)c(N5CCOCC5)c3CO4)CC2)C1 [Compound 37] | – | – | 851 | > 10000 | – | Ki [3, 8]: 0.129 µM; kinact [3, 9]: 0.00011 s⁻¹; kinact/KI [3, 10]: 849 M⁻¹ s⁻¹ |
| C=CC(=O)N1CC(N2CCC(c3cc4c(c(C#N)n3)OCc3c(C5CCOCC5)ccnc3N4)CC2)C1 [Compound 322] | – | – | 79.4 | 9550 | – | kinact/KI [3, 7]: 740 M⁻¹ s⁻¹ |
| C=CC(=O)N1CC(N2CC(c3cc4c(c(C)n3)O[C@H](C)c3c(C5CCOCC5)ccnc3N4)C2)C1 (single isomer, unassigned) [Compound 477] | – | – | 166 | > 10000 | 342 | – |
| CC#CC(=O)N1CCC(N2CC(c3cc4c(c(C(F)(F)F)n3)O[C@@H](C)c3c(N5CCOCC5)ccnc3N4)C2)CC1 (single isomer, unassigned) [Compound 502] | – | – | 603 | > 10000 | 9.74 | – |
| C=CC(=O)N1CC(N2CC[C@@H](c3cc4c(c(C)n3)OCc3c(N5CCOCC5)ccnc3N4)N(C)CC2)C1 (single isomer, unassigned) [Compound 454] | 0.245 | 5.68e-05 | 257 | > 10000 | 232 | – |

| Compound | Ki [3, 4] [µM] | kinact [3, 5] [s⁻¹] | IC50 [1] [nM] | IC50 [2] [nM] | kinact/KI [3, 6] [M⁻¹ s⁻¹] | further results |
| --- | --- | --- | --- | --- | --- | --- |
| C=CC(=O)N1CCC(N2CCC(c3cc4c(c(C)n3)OCc3c(N5CCOCC5)ccnc3N4)CC2=O)CC1 (stereo not shown) [Compound 476] | 0.236 | 2.18e-05 | 550 | > 10000 | 92.5 | – |
| C=CC(=O)N1CC[C@@H](N2CC(c3cc4c(c(C(F)(F)F)n3)OCc3c(N5CCOCC5)ccnc3N4)C2)C1 (single isomer, unassigned) [Compound 241] | 0.0269 | – | 95.5 | 10700 | 1380 | CDK7 (20 nM enz.) (kinact, s^−1) ([3]; 20 nM enzyme): 3.715e-05 s⁻¹ |
| C=CC(=O)N1CC(N2CCC(c3ccc4c(c3)Nc3nccc(N5CCOC[C@@H]5C)c3CO4)CC2)C1 [Compound 63] | 0.0857 | 7.59e-05 | 288 | > 10000 | 885 | – |
| C=CC(=O)N1CC(c2ncc(-c3ccc4c(c3)Nc3nccc(N5CCOCC5)c3CO4)cn2)C1 [Compound 56] | – | – | 182 | > 10000 | – | Ki [3, 8]: 0.0673 µM; kinact [3, 9]: 6.99e-05 s⁻¹; kinact/KI [3, 10]: 1040 M⁻¹ s⁻¹ |
| C=CC(=O)N1CC(N2[C@@H]3CC[C@H]2C[C@@H](c2ccc4c(c2)Nc2nccc(N5CCOCC5)c2CO4)C3)C1 [Compound 49] | – | – | 53.7 | ~10000 | – | kinact/KI [3, 7]: 1150 M⁻¹ s⁻¹; kinact/KI [3, 10]: 990 M⁻¹ s⁻¹ |
| C=CC(=O)N1CC(N2CCC(c3cc4c(c(C)n3)O[C@H](C)c3c(C5CCOCC5)ccnc3N4)CC2)C1 (single isomer, unassigned) [Compound 246] | 0.0946 | 8.4e-05 | ~28.8 | > 10000 | 887 | – |
| CC#CC(=O)N1CC(N2CCC(c3cc4c(c(C)n3)O[C@H](C)c3c(N5CCOCC5)ccnc3N4)CC2)C1 (single isomer, unassigned) [Compound 510] | 0.052 | – | – | – | – | CDK7_A549 Wild-type CDK7 (pIC50) [1]: 6.72; CDK7_A549 mutant hCDK7(pIC50) [2]: <5; CDK7 (20 nM enz.) (kinact, s^−1) ([3]; 20 nM enzyme): 3.092e-05 s⁻¹; CDK7 (20 nM enz.) (kinact/KI, M^−1*s^−1) ([3]; 20 nM enzyme): 594.812 M⁻¹ s⁻¹ |
| C=CC(=O)N1CC(c2nc(C)c(-c3ccc4c(c3)Nc3nccc(N5CCOCC5)c3CO4)c(C)n2)C1 [Compound 51] | – | – | 417 | > 10000 | – | Ki [3, 8]: 0.0706 µM; kinact [3, 9]: 7.84e-05 s⁻¹; kinact/KI [3, 10]: 1110 M⁻¹ s⁻¹ |
| C=CC(=O)N1CC(c2nc(C)c(-c3cc(C)c4c(c3)Nc3nccc(C5CCOCC5)c3CO4)c(C)n2)C1 [Compound 129] | 0.17 | 5.48e-05 | 151 | > 10000 | 323 | – |
| C=CC(=O)N1CC(N2CC(c3cc4c(c(C#N)n3)OCc3c(C5CCOCC5)ccnc3N4)C2)C1 [Compound 339] | 0.0746 | 7.81e-05 | 145 | > 10000 | 1050 | – |
| C=CC(=O)N1CCC(N2CC(c3cc(F)c4c(c3)Nc3nccc(C5CCOCC5)c3CO4)C2)CC1 [Compound 112] | 0.0653 | 4.53e-05 | 155 | 8510 | 693 | – |
| C=CC(=O)N1CC[C@H](N2CC(c3cc(C#N)c4c(c3)Nc3nccc(N5CCOCC5)c3[C@@H](C)O4)C2)C1 (single isomer, unassigned) [Compound 459] | – | – | 72.4 | 4370 | – | kinact/KI [3, 7]: 734 M⁻¹ s⁻¹ |
| C=CC(=O)N1CC(N2CC(c3cc4c(c(C(F)(F)F)n3)OCc3c(N5CCOCC5)ccnc3N4)C2)C1 [Compound 357] | – | – | – | – | – | CDK7_A549 Wild-type CDK7 (pIC50) [1]: 7.24; CDK7_A549 mutant hCDK7(pIC50) [2]: 5.11; CDK7 (20 nM enz.) (kobs/[I], M^−1*s^−1) ([3]; 20 nM enzyme): 2368.08 M⁻¹ s⁻¹ |
| C=C(F)C(=O)N1CC(N2CCC(c3ccc4c(c3)Nc3nccc(C5CCOCC5)c3CO4)CC2)C1 [Compound 188] | 0.507 | 3.02e-05 | 1070 | > 10000 | 59.6 | – |
| CC#CC(=O)N1CC(N2CCC(c3ccc4c(c3)Nc3nccc(C5CCOCC5)c3CO4)CC2)C1 [Compound 269] | 0.103 | 4.28e-05 | 162 | > 10000 | 417 | – |
